Activity calls are given as the source filed them. The rule behind the calls is not given here.
Legend:
NB-4 [1] = test: Cell cycle arrest in human NB4 cells transfected with pLVX-shPML-RARalpha plasmid assessed as accumulation of cells at sub-G1 phase at 2 uM incubated for 12 hrs by DAPI staining based flow cytometric analysis (reference value: 21 %); assay type: functional
NB-4 [2] = test: Cell cycle arrest in human NB4 cells transfected with pLVX-shRNA2-negative control assessed as accumulation of cells at S phase at 2 uM incubated for 12 hrs by DAPI staining based flow cytometric analysis (reference value: 26 %); assay type: functional
ATRA-resistant NB4-LR2 = test: Induction of apoptosis in human ATRA-resistant NB4-LR2 cells transfected with pLVX-shRXRalpha assessed as increase in cleaved PARP expression at 1 uM incubated for 12 hrs by Western blot analysis; assay type: functional, cell-based
[3] = Cell cycle arrest in human ATRA-resistant NB4-LR2 cells assessed as accumulation of cells at sub-G1 phase at 0.5 uM incubated for 24 hrs by DAPI staining based flow cytometric analysis (reference value: 12 %); assay type: functional
[4] = Induction of apoptosis in human ATRA-resistant NB4-LR2 cells assessed as late apoptotic cells at 1 uM incubated for 24 hrs by Annexin V-FITC/PI staining based flow cytometric analysis (reference value: 5.62 %); assay type: functional
NB-4 [5] = test: Cell cycle arrest in human NB4 cells assessed as accumulation of cells at G0/G1 phase at 2 uM incubated for 6 hrs by DAPI staining based flow cytometric analysis (reference value: 56 %); assay type: functional
NB-4 [6] = test: Cell cycle arrest in human NB4 cells transfected with pLVX-shRXRalpha plasmid assessed as accumulation of cells at G2/M phase at 2 uM incubated for 12 hrs by DAPI staining based flow cytometric analysis (reference value: 17 %); assay type: functional
NB-4 [7] = test: Cell cycle arrest in human NB4 cells assessed as accumulation of cells at G0/G1 phase at 1 uM incubated for 24 hrs by DAPI staining based flow cytometric analysis (reference value: 48 %); assay type: functional
[8] = Cell cycle arrest in human ATRA-resistant NB4-LR2 cells assessed as accumulation of cells at S phase at 2 uM incubated for 6 hrs by DAPI staining based flow cytometric analysis (reference value: 19 %); assay type: functional
[9] = Cell cycle arrest in human ATRA-resistant NB4-LR2 cells assessed as accumulation of cells at G0/G1 phase at 1 uM incubated for 12 hrs by DAPI staining based flow cytometric analysis (reference value: 42 %); assay type: functional
[10] = Cell cycle arrest in human ATRA-resistant NB4-LR2 cells assessed as accumulation of cells at G0/G1 phase at 1 uM incubated for 24 hrs by DAPI staining based flow cytometric analysis (reference value: 42 %); assay type: functional
NB-4 [11] = test: Cell cycle arrest in human NB4 cells transfected with pLVX-shPML-RARalpha plasmid assessed as accumulation of cells at G2/M phase at 2 uM incubated for 12 hrs by DAPI staining based flow cytometric analysis (reference value: 22 %); assay type: functional
NB-4 [12] = test: Cell cycle arrest in human NB4 cells assessed as accumulation of cells at S phase at 1 uM incubated for 12 hrs by DAPI staining based flow cytometric analysis (reference value: 20 %); assay type: functional
NB-4 [13] = test: Cell cycle arrest in human NB4 cells assessed as accumulation of cells at sub-G1 phase at 2 uM incubated for 12 hrs by DAPI staining based flow cytometric analysis (reference value: 3 %); assay type: functional
NB-4 [14] = test: Cell cycle arrest in human NB4 cells assessed as accumulation of cells at S phase at 0.5 uM incubated for 24 hrs by DAPI staining based flow cytometric analysis (reference value: 26 %); assay type: functional
NB-4 [15] = test: Cell cycle arrest in human NB4 cells transfected with pLVX-shRNA2-negative control assessed as accumulation of cells at G2/M phase at 2 uM incubated for 12 hrs by DAPI staining based flow cytometric analysis (reference value: 24 %); assay type: functional
NB-4 [16] = test: Cell cycle arrest in human NB4 cells assessed as accumulation of cells at G2/M phase at 1 uM incubated for 24 hrs by DAPI staining based flow cytometric analysis (reference value: 23 %); assay type: functional
NB-4 [17] = test: Cell cycle arrest in human NB4 cells transfected with pLVX-shPML-RARalpha plasmid assessed as accumulation of cells at G2/M phase at 1 uM incubated for 12 hrs by DAPI staining based flow cytometric analysis (reference value: 22 %); assay type: functional
NB-4 [18] = test: Cell cycle arrest in human NB4 cells transfected with pLVX-shPML-RARalpha plasmid assessed as accumulation of cells at S phase at 2 uM incubated for 12 hrs by DAPI staining based flow cytometric analysis (reference value: 19 %); assay type: functional
NB-4 [19] = test: Cell cycle arrest in human NB4 cells assessed as accumulation of cells at G2/M phase at 0.5 uM incubated for 24 hrs by DAPI staining based flow cytometric analysis (reference value: 23 %); assay type: functional
NB-4 [20] = test: Cell cycle arrest in human NB4 cells assessed as accumulation of cells at sub-G1 phase at 2 uM incubated for 24 hrs by DAPI staining based flow cytometric analysis (reference value: 3 %); assay type: functional
NB-4 [21] = test: Cell cycle arrest in human NB4 cells assessed as accumulation of cells at S phase at 1 uM incubated for 24 hrs by DAPI staining based flow cytometric analysis (reference value: 26 %); assay type: functional
NB-4 [22] = test: Cell cycle arrest in human NB4 cells assessed as accumulation of cells at sub-G1 phase at 2 uM incubated for 6 hrs by DAPI staining based flow cytometric analysis (reference value: 3 %); assay type: functional
NB-4 [23] = test: Cell cycle arrest in human NB4 cells assessed as accumulation of cells at G0/G1 phase at 2 uM incubated for 3 hrs by DAPI staining based flow cytometric analysis (reference value: 56 %); assay type: functional
[24] = Cell cycle arrest in human ATRA-resistant NB4-LR2 cells assessed as accumulation of cells at G2/M phase at 1 uM incubated for 12 hrs by DAPI staining based flow cytometric analysis (reference value: 28 %); assay type: functional
[25] = Cell cycle arrest in human ATRA-resistant NB4-LR2 cells assessed as accumulation of cells at G0/G1 phase at 2 uM incubated for 3 hrs by DAPI staining based flow cytometric analysis (reference value: 57 %); assay type: functional
NB-4 [26] = test: Cell cycle arrest in human NB4 cells assessed as accumulation of cells at G2/M phase at 1 uM incubated for 12 hrs by DAPI staining based flow cytometric analysis (reference value: 26 %); assay type: functional
[27] = Cell cycle arrest in human ATRA-resistant NB4-LR2 cells assessed as accumulation of cells at G0/G1 phase at 0.5 uM incubated for 24 hrs by DAPI staining based flow cytometric analysis (reference value: 42 %); assay type: functional
[28] = Cell cycle arrest in human ATRA-resistant NB4-LR2 cells assessed as accumulation of cells at sub-G1 phase at 2 uM incubated for 12 hrs by DAPI staining based flow cytometric analysis (reference value: 9 %); assay type: functional
NB-4 [29] = test: Cell cycle arrest in human NB4 cells assessed as accumulation of cells at G0/G1 phase at low concentration by DAPI staining based flow cytometric analysis; assay type: functional
NB-4 [30] = test: Cell cycle arrest in human NB4 cells assessed as accumulation of cells at G2/M phase at 2 uM incubated for 3 to 12 hrs by DAPI staining based flow cytometric analysis; assay type: functional; details: time 3-12 hrs

SMILES: Cc1cc2c(cc1C(=O)/C(Br)=C/c1ccc(C(=O)O)cc1)C(C)(C)CCC2(C)C
- Activity (NB-4 [1]): 27%
- Activity (NB-4 [2]): 18%
- Activity (ATRA-resistant NB4-LR2): inactive
- Activity [3]: 18%
- Activity [4]: 20.28%
- Activity (NB-4 [5]): 30%
- Activity (NB-4 [6]): 26%
- Activity (NB-4 [7]): 38%
- Activity [8]: 7%
- Activity [9]: 10%
- Activity [10]: 32%
- Activity (NB-4 [11]): 20%
- Activity (NB-4 [12]): 13%
- Activity (NB-4 [13]): 4%
- Activity (NB-4 [14]): 10%
- Activity (NB-4 [15]): 44%
- Activity (NB-4 [16]): 45%
- Activity (NB-4 [17]): 27%
- Activity (NB-4 [18]): 11%
- Activity (NB-4 [19]): 26%
- Activity (NB-4 [20]): 9%
- Activity (NB-4 [21]): 9%
- Activity (NB-4 [22]): 3%
- Activity (NB-4 [23]): 48%
- Activity [24]: 52%
- Activity [25]: 48%
- Activity (NB-4 [26]): 61%
- Activity [27]: 37%
- Activity [28]: 32%

SMILES: Cc1cc2c(cc1C(=O)/C(Br)=C\c1ccc(C(=O)O)cc1)C(C)(C)CCC2(C)C
- Activity (NB-4 [29]): Active
- Activity (NB-4 [30]): Active

Source: ChEMBL document CHEMBL6134780, “Halogenated retinoid derivatives as dual RARα and RXRα modulators for treating acute promyelocytic leukemia cells” (Eur J Med Chem, 2024)
